One data set has as its target USP1/UAF1 enzyme (Homo sapiens, UniProt O94782). The data set can be described thus: USP1/UAF1 deubiquitination assay (ubiquitin-rhodamine 110 substrate). Conditions: read-out: USP1 IC50 (Ub-Rho). In kind it is biochemical. An outline of the steps: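 Cleavage of 150 nM ubiquitin-rhodamine 110 by 0.05 nM USP1/UAF1 was followed as fluorescence (Ex480/Em540, kinetic, 30 min) in Tris-HCl pH 7.8 buffer with EDTA, BSA, DTT and Tween-20. Compounds, top 10 μM, were preincubated with enzyme 10 min; % inhibition against no-enzyme and DMSO wells gave four-parameter IC50s.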

In data set [1] the test system is Ub-PCNA levels in the nucleus of ES2 cells (USP1 activity). The data set can be described thus: ES2 Ub-PCNA immunofluorescence (IF) assay. In kind it is cell-based. To be noted: read-out: USP1 IC50 (Ub-PCNA). The procedure, abridged: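 AC50 derived from percent Ub-PCNA-positive nuclei, positivity set by a 95% cutoff from untreated-well intensities. Readout by imaging immunofluorescence (anti-Ub-PCNA, DAPI nuclear mask) after methanol fixation. Compound exposure: 3 h at 37° C, 0.3% DMSO final, on cells plated overnight.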

A short description of data set [2]: ADME solubility determination in PBS at pH 2.0 and pH 7.4. In kind it is physicochemical. To be noted: for solubility at 24 h: phosphate buffered saline, 25 °C, thermodynamic from solid. The procedure, abridged:
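Solubility was read by LC-MS/MS on centrifuged supernatants, calibrated to a known-concentration standard and corrected for dilution. Compound, dried down from 10 mM DMSO stock, was equilibrated 24 h at 25° C with shaking in PBS at pH 2.0 or pH 7.4.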

The nature of data set [3]: Liver microsomal metabolic stability, rat liver microsomes (RLM). Conditions: 1 μM compound, 1 mg/mL microsomes, NADPH; for half-life at 1 μM: rat, liver microsomes, t1/2 (min) in RLM. (Liver microsomes are a subcellular fraction often used to study metabolism.)
A short description of data set [4]: Liver microsomal metabolic stability, human liver microsomes (HLM). Conditions: for half-life at 1 μM: human, liver microsomes.
[5] abbreviates: Homo sapiens, ES-2, ES2 cells, 3 hours, Ub-PCNA immunofluorescence.
Setting [6] is: pH 2, aqueous buffer, PBS pH 2.0, 25° C., read-out: Solubility at pH 2.0.
[7] abbreviates: pH 7.4, aqueous buffer, PBS pH 7.4, 25° C., read-out: Solubility at pH 7.4.

pIC50: −log10 of the molar value. Like-named read-outs stand apart in the source and are kept apart here. Some results are limits rather than exact numbers.

USP1/UAF1 enzyme, sequence (O94782 whole entry): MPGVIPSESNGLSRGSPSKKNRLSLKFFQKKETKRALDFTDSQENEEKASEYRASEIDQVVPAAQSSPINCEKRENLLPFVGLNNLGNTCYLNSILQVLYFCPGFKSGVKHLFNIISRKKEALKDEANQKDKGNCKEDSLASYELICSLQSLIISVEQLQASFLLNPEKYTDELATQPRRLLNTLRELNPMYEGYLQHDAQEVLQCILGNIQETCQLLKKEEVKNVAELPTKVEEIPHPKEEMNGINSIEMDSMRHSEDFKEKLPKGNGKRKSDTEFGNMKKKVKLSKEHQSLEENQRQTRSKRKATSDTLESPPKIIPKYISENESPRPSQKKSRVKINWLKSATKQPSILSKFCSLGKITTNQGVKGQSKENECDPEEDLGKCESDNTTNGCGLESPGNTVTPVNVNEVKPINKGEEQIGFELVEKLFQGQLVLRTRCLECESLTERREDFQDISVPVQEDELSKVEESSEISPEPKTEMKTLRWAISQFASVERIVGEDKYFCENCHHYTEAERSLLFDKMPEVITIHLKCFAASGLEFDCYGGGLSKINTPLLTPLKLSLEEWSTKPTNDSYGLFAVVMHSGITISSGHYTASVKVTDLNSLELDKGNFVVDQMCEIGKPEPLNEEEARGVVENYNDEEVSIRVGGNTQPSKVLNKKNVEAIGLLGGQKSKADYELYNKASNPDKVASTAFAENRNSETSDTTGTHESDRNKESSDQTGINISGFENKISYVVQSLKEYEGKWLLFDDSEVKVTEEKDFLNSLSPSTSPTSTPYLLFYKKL
USP1/UAF1 enzyme, sequence (Q8TAF3 whole entry partner): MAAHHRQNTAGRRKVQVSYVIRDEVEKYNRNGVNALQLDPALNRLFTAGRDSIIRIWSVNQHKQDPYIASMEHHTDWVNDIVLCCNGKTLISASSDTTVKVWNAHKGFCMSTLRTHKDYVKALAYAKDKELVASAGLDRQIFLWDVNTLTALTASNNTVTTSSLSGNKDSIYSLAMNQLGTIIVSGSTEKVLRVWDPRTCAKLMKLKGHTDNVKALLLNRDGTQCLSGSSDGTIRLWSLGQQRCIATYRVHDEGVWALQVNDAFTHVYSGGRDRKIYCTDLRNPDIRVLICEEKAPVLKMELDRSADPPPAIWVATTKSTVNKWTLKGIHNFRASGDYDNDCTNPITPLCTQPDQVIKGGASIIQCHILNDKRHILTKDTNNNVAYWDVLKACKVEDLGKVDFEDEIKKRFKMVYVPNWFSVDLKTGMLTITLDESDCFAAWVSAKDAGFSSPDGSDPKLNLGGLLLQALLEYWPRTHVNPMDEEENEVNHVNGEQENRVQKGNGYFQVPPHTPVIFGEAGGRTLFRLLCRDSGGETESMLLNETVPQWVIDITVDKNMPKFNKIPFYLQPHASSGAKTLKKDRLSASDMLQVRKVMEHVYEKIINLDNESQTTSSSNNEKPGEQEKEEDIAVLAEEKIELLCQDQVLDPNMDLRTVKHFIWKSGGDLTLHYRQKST

For `CCn1cc(C(F)(F)F)nc1-c1ccc(NC2CCCn3nc(-c4c(C#N)cnn4C(C)C)cc32)cc1F` (stereo not drawn) [Example 266, 5-(4-((4-(1-ethyl-4-(trifluoromethyl)-1H-imidazol-2-yl)-3-fluorophenyl)amino)-4,5,6,7-tetrahydropyrazolo[1,5-α]pyridin-2-yl)-1-isopropyl-1H-pyrazole-4-carbonitrile], the pIC50 was > 7.00 at USP1/UAF1 enzyme and 6.30 to 7.00 in data set [1] (setting [5]). Besides, the solubility at 24 h in data set [2] (setting [6]) and in data set [2] (setting [7]) was < 10 µM in each case. In addition, the half-life at 1 μM in data set [3] and in data set [4] was > 25 min throughout.
With `CCn1cc(C(F)(F)F)nc1-c1ccc(CN2CC(O)Cn3nc(-c4c(Cl)cnn4C(C)C)cc32)cc1F` (stereo not drawn) [Example 267, 2-(4-chloro-1-isopropyl-1H-pyrazol-5-yl)-4-(4-(1-ethyl-4-(trifluoromethyl)-1H-imidazol-2-yl)-3-fluorobenzyl)-4,5,6,7-tetrahydropyrazolo[1,5-α]pyrimidin-6-ol], the pIC50 at USP1/UAF1 enzyme is > 7.00; in data set [1] (ES2 cells, 3 hours, Ub-PCNA immunofluorescence), > 7.00. Besides, the “Solubility at pH 2.0 (μM)” value in data set [2] (PBS pH 2.0, 25° C., 24 hours) is given as “+ (“+” indicates less than 10 μM)”. In addition, the “Solubility at pH 7.4 (μM)” value in data set [2] (PBS pH 7.4, 25° C., 24 hours) is given as “+ (“+” indicates less than 10 μM)”. Further, in data set [3], the “t1/2 (min) in RLM” value is given as “+ (“+” indicates less than 25 minutes)”. Moreover, the “t1/2 (min) in HLM” value in data set [4] (human liver microsomes, 1 μM compound, 1 mg/mL microsomes, NADPH) is “+ (“+” indicates less than 25 minutes)”.
In the case of `CCn1cc(C(F)(F)F)nc1-c1ccc(COC2CCCn3nc(-c4c(Cl)cnn4C(C)C)cc32)cc1` (stereo not drawn) [Example 270, 2-(4-chloro-1-isopropyl-1H-pyrazol-5-yl)-4-((4-(1-ethyl-4-(trifluoromethyl)-1H-imidazol-2-yl)benzyl)oxy)-4,5,6,7-tetrahydropyrazolo[1,5-α]pyridine], the pIC50 (on USP1/UAF1 enzyme; in data set [1] (setting [5])) was > 7.00 in each case. Besides, the solubility at 24 h in data set [2] (setting [6]) and in data set [2] (setting [7]) was < 10 µM throughout. Further, the half-life at 1 μM in data set [3] and in data set [4] was < 25 min throughout.
Take `CC(C)n1ncc(Cl)c1-c1cc2n(n1)CCC(=O)N2Cc1ccc(-c2ncccc2OC2CC2)c(Cl)c1` [Example 290]: the pIC50 on USP1/UAF1 enzyme is > 7.00; in data set [1] (setting [5]) it was 6.30 to 7.00. Also, the solubility at 24 h in data set [2] (setting [6]) is ≥ 10 µM; in data set [2] (setting [7]), < 10 µM. Also, the half-life at 1 μM in data set [3] and in data set [4] was < 25 min each time.
Take `CC(C)Oc1cccnc1-c1ccc(CN2C(=O)CCn3nc(-c4c(Cl)cnn4C(C)C)cc32)cc1` [Example 291]: the values for the pIC50 (on USP1/UAF1 enzyme; in data set [1] (setting [5])) were > 7.00 and 6.30 to 7.00, respectively. In addition, the solubility at 24 h in data set [2] (setting [6]) and in data set [2] (setting [7]) was < 10 µM each time. Moreover, the half-life at 1 μM in data set [3] and in data set [4] was < 25 min in each case.
In the case of `COc1ccc(C(F)(F)F)nc1-c1ccc(CN2C(=O)CCn3nc(-c4c(Cl)cnn4C(C)C)cc32)cc1Cl` [Example 294], the pIC50 (at USP1/UAF1 enzyme; in data set [1] (setting [5])) was > 7.00 each time. Moreover, the solubility at 24 h in data set [2] (setting [6]) and in data set [2] (setting [7]) was < 10 µM each time. For the same compound, the results for the half-life at 1 μM in data set [3] and in data set [4] were < 25 min and > 25 min, respectively.
Turning to `CC(C)n1ncc(Cl)c1-c1cc2n(n1)CCC(=O)N2Cc1ccc(-c2ncccc2N2CCOCC2)c(Cl)c1` [Example 296], the pIC50 on USP1/UAF1 enzyme is > 7.00; in data set [1] (setting [5]), 6.30 to 7.00. Further, the solubility at 24 h in data set [2] (setting [6]) was ≥ 10 µM; in data set [2] (setting [7]), < 10 µM. Also, the half-life at 1 μM in data set [3] and in data set [4] was < 25 min throughout.
On to `CC(C)Oc1cccnc1-c1ccc(CN2C(=O)CCn3nc(-c4c(Cl)cnn4C(C)C)nc32)cc1` [Example 304], for which the pIC50 at USP1/UAF1 enzyme is > 7.00; in data set [1] (setting [5]), 6.30 to 7.00. The results for the solubility at 24 h in data set [2] (setting [6]) and in data set [2] (setting [7]) were ≥ 10 µM and < 10 µM, respectively. Besides, the half-life at 1 μM in data set [3] and in data set [4] was < 25 min in each case.
With `COc1cccnc1-c1ccc(CN2C(=O)CCn3nc(-c4c(Cl)cnn4C(C)C)cc32)cc1` [Example 305], the figures for the pIC50 (on USP1/UAF1 enzyme; in data set [1] (setting [5])) were > 7.00 and 6.30 to 7.00, respectively. For the same compound, the solubility at 24 h in data set [2] (setting [6]) was ≥ 10 µM; in data set [2] (setting [7]), < 10 µM. The half-life at 1 μM in data set [3] and in data set [4] was < 25 min each time.
Consider `CCOc1cccnc1-c1ccc(CN2C(=O)CCn3nc(-c4c(Cl)cnn4C(C)C)cc32)cc1Cl` [Example 307], for which the pIC50 at USP1/UAF1 enzyme is > 7.00; in data set [1] (setting [5]), 6.30 to 7.00. Also, the solubility at 24 h in data set [2] (setting [6]) and in data set [2] (setting [7]) was < 10 µM each time. The half-life at 1 μM in data set [3] and in data set [4] was < 25 min each time.
On to `COc1ccc(C)nc1-c1ccc(CN2C(=O)CCn3nc(-c4c(Cl)cnn4C(C)C)cc32)cc1Cl` [Example 309], for which the values for the negative logarithm of the IC50 (pIC50) (on USP1/UAF1 enzyme; in data set [1] (setting [5])) were > 7.00 and 6.30 to 7.00, respectively. Moreover, the solubility at 24 h in data set [2] (setting [6]) is ≥ 10 µM; in data set [2] (setting [7]), < 10 µM. Moreover, the half-life at 1 μM in data set [3] and in data set [4] was < 25 min throughout.
Turning to `CC(C)n1ncc(Cl)c1-c1cc2n(n1)CCC(=O)N2Cc1ccc(-c2ncccc2N(C)C)cc1` [Example 321], the pIC50 (on USP1/UAF1 enzyme; in data set [1] (setting [5])) was > 7.00 throughout. In addition, the solubility at 24 h was ≥ 10 µM in data set [2] (setting [6]) and < 10 µM in data set [2] (setting [7]). The half-life at 1 μM in data set [3] and in data set [4] was < 25 min each time.
With `CCn1cc(C(F)(F)F)nc1-c1ccc(CN2CC(C)(C)Cn3nc(-c4c(OC)ncnc4C4CC4)cc32)cc1F` [Example 327, 2-(4-cyclopropyl-6-methoxypyrimidin-5-yl)-4-(4-(1-ethyl-4-(trifluoromethyl)-1H-imidazol-2-yl)-3-fluorobenzyl)-6,6-dimethyl-4,5,6,7-tetrahydropyrazolo[1,5-α]pyrimidine], the pIC50 (at USP1/UAF1 enzyme; in data set [1] (setting [5])) was > 7.00 each time. Besides, the solubility at 24 h in data set [2] (setting [6]) was ≥ 10 µM; in data set [2] (setting [7]), < 10 µM. Besides, the half-life at 1 μM in data set [3] and in data set [4] was < 25 min in each case.
Consider `CCn1cc(C(F)(F)F)nc1-c1ccc(CNC2CCCn3nc(-c4c(Cl)cnn4C(C)C)cc32)cc1` (stereo not drawn) [Example 330, 2-(4-chloro-1-isopropyl-1H-pyrazol-5-yl)-N-(4-(1-ethyl-4-(trifluoromethyl)-1H-imidazol-2-yl)benzyl)-4,5,6,7-tetrahydropyrazolo[1,5-α]pyridin-4-amine], for which the negative logarithm of the IC50 (pIC50) at USP1/UAF1 enzyme is > 7.00; in data set [1] (Homo sapiens, ES-2, 3 h) it was > 7.00. In addition, the solubility at 24 h in data set [2] (setting [6]) is ≥ 10 µM; in data set [2] (setting [7]) it was < 10 µM. For the same compound, the half-life at 1 μM in data set [3] and in data set [4] was < 25 min in each case.
Regarding `CCn1cc(C(F)(F)F)nc1-c1ccc(N(CCO)C2CCCn3nc(-c4c(Cl)cnn4C(C)C)cc32)cc1F` (stereo not drawn) [Example 331, 2-((2-(4-chloro-1-isopropyl-1H-pyrazol-5-yl)-4,5,6,7-tetrahydropyrazolo[1,5-α]pyridin-4-yl)(4-(1-ethyl-4-(trifluoromethyl)-1H-imidazol-2-yl)-3-fluorophenyl)amino)-ethan-1-ol], the pIC50 (at USP1/UAF1 enzyme; in data set [1] (setting [5])) was > 7.00 each time. In addition, the solubility at 24 h in data set [2] (setting [6]) and in data set [2] (setting [7]) was < 10 µM throughout. In addition, the half-life at 1 μM in data set [3] and in data set [4] was < 25 min throughout.
Regarding `CCn1cc(C(F)(F)F)nc1-c1ccc(Cn2c(=O)ccn3nc(-c4c(OC)ncnc4C4CC4)cc23)cc1` [Example 332, 2-(4-cyclopropyl-6-methoxypyrimidin-5-yl)-4-(4-(1-ethyl-4-(trifluoromethyl)-1H-imidazol-2-yl)benzyl)pyrazolo[1,5-α]pyrimidin-5(4H)-one], the pIC50 (on USP1/UAF1 enzyme; in data set [1] (setting [5])) was > 7.00 each time. In addition, the solubility at 24 h in data set [2] (setting [6]) and in data set [2] (setting [7]) was ≥ 10 µM in each case. In addition, the half-life at 1 μM in data set [3] and in data set [4] was > 25 min throughout.
With `CCn1cc(C(F)(F)F)nc1-c1ccc([C@@H](C)n2c(=O)ccn3nc(-c4c(OC)ncnc4C4CC4)cc23)cc1F` [Example 333, (R)-2-(4-cyclopropyl-6-methoxypyrimidin-5-yl)-4-(1-(4-(1-ethyl-4-(trifluoromethyl)-1H-imidazol-2-yl)-3-fluorophenyl)ethyl)pyrazolo[1,5-α]pyrimidin-5(4H)-one], the pIC50 (at USP1/UAF1 enzyme; in data set [1] (setting [5])) was > 7.00 throughout. Also, the solubility at 24 h in data set [2] (setting [6]) and in data set [2] (setting [7]) was < 10 µM each time. Also, the half-life at 1 μM in data set [3] and in data set [4] was > 25 min throughout.

Broadly, the pIC50 is the IC50 on a negative log10 scale, so that one unit is a factor of ten. A word on the solubility: it is the concentration that dissolves in the medium under given conditions. The term half-life denotes the time needed for the level to fall by half in the phase considered.

Values taken from patent US20230219965A1 (KSQ Therapeutics, Inc., priority 2020, published 2023).
